Results reported in publication PMC9857891, “Optimization and Molecular Mechanism of Novel α-Glucosidase Inhibitory Peptides Derived from Camellia Seed Cake through Enzymatic Hydrolysis” (Foods, 2023).
pIC50: −log10 of the molar value. Where a SMILES comes first, the peptide text is derived from it. Where no end group is shown, it is not given here.

Assays:
α-glucosidase [1] = assay: Simulated gastrointestinal digestion in vitro, residual α-glucosidase inhibitory activity; type: in vitro ADME; settings: 37 °C; for loss of α-glucosidase inhibitory activity after SGID: SGF 120 min then SIF 120 min; for loss of α-glucosidase inhibitory activity after simulated gastric digestion (SGD): SGF, 120 min
Experimental: (§1) The α-glucosidase inhibition activity was performed as described in the literature. In a 96-well enzyme plate, 40 μL of PBS buffer solution (pH 6.86, 0.1 M), 40 μL of sample solution, and 80 μL of α-glucosidase solution (0.2 U/mL) were added, mixed well, and reacted at 37 °C for 15 min. Next, 80 μL of 2.5 mM p-nitrophenyl-α-D-glucopyranoside (pNPG, 0.1 M, pH 6.8 in PBS) was added, mixed well, and reacted at 37 °C for 20 min. Finally, 150 μL of 0.2 M Na2CO3 solution was added to stop the reaction, which was then measured for absorbance values at 405 nm A1. Data were collected for three parallel experiments. (1) α-glucosidase inhibitory activity (%) = A0− (A 1− A2)/ A0 × 100% where A0 is the absorbance of an equal amount of PBS buffer in place of the sample; A2 is the absorbance of an equal amount of PBS buffer in place of the α-glucosidase solution and pNPG solution.
The method of simulated gastrointestinal digestion (SGID) follows the previous method with slight modifications. Simulated gastric fluid (SGFs) and simulated intestinal fluid (SIFs) are both purchased from Shanghai Yuanye Biotechnology Co., Ltd., as previously mentioned. In brief, the synthesized peptide LLVLYYEY and LLLLPSYSEF was pre-dissolved to 4 mg/mL in pure water. LLVLYYEY and LLLLPSYSEF aqueous solution was mixed with SGFs (1:1, v/v) and digested at 37 °C for 120 min. SIFs (1:1, v/v) was then mixed and the mixture was incubated for 120 min. After 120 min of incubation, the pH was adjusted to 7 by NaOH (1M) to stop the simulated gastric digestion (SGD) phase; after 240 min of incubation the simulated intestinal digestion (SID) phase was stopped by a boiling water bath for 10 min.

α-glucosidase [2] = assay: α-glucosidase inhibition assay in vitro (pNPG substrate); type: biochemical; settings: synthesized peptides; read-out: α-glucosidase Inhibitory Activity (IC50)
Experimental: as §1

pIC50 (α-glucosidase [2]) | Compound | loss of α-glucosidase inhibitory activity after SGID (α-glucosidase [1]) | loss of α-glucosidase inhibitory activity after simulated gastric digestion (SGD) (α-glucosidase [1])
 | LLVLYYEY [LLVLYYEY, Leu-Leu-Val-Leu-Tyr-Tyr-Glu-Tyr] | significant loss of activity | essentially no loss
< 2.00 | C[C@H](N)C(=O)N[C@H](C(=O)N[C@@H](CC(N)=O)C(=O)N1CCC[C@H]1C(=O)N1CCC[C@H]1C(=O)N[C@@H](CS)C(=O)N[C@@H](CS)C(=O)N[C@@H](CCC(N)=O)C(=O)N1CCC[C@H]1C(=O)O)[C@@H](C)O [ATNPPCCQP, Ala-Thr-Asn-Pro-Pro-Cys-Cys-Gln-Pro] (H-ATNPPCCQP-OH) |  | 
2.36 | CC(C)C[C@H](N)C(=O)N[C@@H](CS)C(=O)N[C@@H](CC(=O)O)C(=O)N[C@@H](CCC(N)=O)C(=O)N[C@@H](CS)C(=O)N1CCC[C@H]1C(=O)N1CCC[C@H]1C(=O)N[C@@H](Cc1c[nH]cn1)C(=O)N[C@@H](C)C(=O)O [LCDQCPPHA, Leu-Cys-Asp-Gln-Cys-Pro-Pro-His-Ala] (H-LCDQCPPHA-OH) |  | 
 | LLLLPSYSEF [LLLLPSYSEF, Leu-Leu-Leu-Leu-Pro-Ser-Tyr-Ser-Glu-Phe] | significant loss of activity | essentially no loss
